Test results from patent publication US6579882B2, “Cell adhesion-inhibiting antiinflammatory compounds” (Abbott Laboratories, priority 1998, dated 2003).
Each block holds one compound with its values, some of them ahead of it.

Assays:
E-Selectin = assay: CAM ELISA: E-selectin expression on TNF-stimulated HUVECs; format: cell-based; details: 1 μM compound, primary human umbilical vein endothelial cells, compound 24 hours, then TNF 5 ng/mL 6 hours; for inhibition at 1 µM: Homo sapiens, Endothelial cell
Experimental: (§1) Pooled primary human umbilical vein endothelial cells (HtVEC's) (Clonetics) between passages 3 and 7 were plated in 96-well plates (Costar), 100 μL/well, 5×10^4 cells/mL in Clonetics EBM/2% FBS/EGF/Bovine brain extract/gentamicin in the absence of hydrocortisone. The following day, compounds of the invention were added in 10 μL/well medium, and the plates were incubated at 37° C. 24 hours after compound addition, TNF (Gibco/BRL) in 10 μL/well medium was added to a final concentration of 5 ng/mL, and the cells were incubated an additional 6 hours at 37° C. Then media was removed, and the plates were washed once with D-PBS (Gibco/BRL) and treated with primary antibodies (Becton Dickinson, City), 100 μL/well in D-PBS/2% BSA (Sigma)/0.01% azide. Primary antibodies at an initial concentration of 1 mg/mL were used at the following dilutions: anti-ELAM-1, 1:2000, anti-ICAM-1, 1:2000 and anti-VACM-1, 1:3000. Plates were stored overnight at 4° C., washed 3 times with D-PBS, and treated with secondary antibody (Jackson Labs), 100 μL/well 1:8000 dilution HRP-conjugated donkey anti-mouse IgG(H+L) in D-PBS/2%BSA. Plates were incubated a minimum of 1 hour at room temperature, washed 3 times with D-PBS and treated with 100 μL of orhto-phenylene diamine-2 HCl reagent per well. Plates were developed approximately 15 minutes and neutralized with 100 μL/well 1N sulfuric acid. Absorbance was read at 490 nm.

VCAM-1 = assay: CAM ELISA: VCAM-1 expression on TNF-stimulated HUVECs; format: cell-based; details: 1 μM compound, primary human umbilical vein endothelial cells, compound 24 hours, then TNF 5 ng/mL 6 hours; for inhibition at 1 µM: Homo sapiens, Endothelial cell
Experimental: as §1

ICAM-1 = assay: CAM ELISA: ICAM-1 expression on TNF-stimulated HUVECs; format: cell-based; details: 1 μM compound, primary human umbilical vein endothelial cells, compound 24 hours, then TNF 5 ng/mL 6 hours; for inhibition at 1 µM: Homo sapiens, Endothelial cell
Experimental: as §1

Compound: 4-(4-Chlorobenzoyl)-N-methylthieno[2,3-c]pyridine-2-carboxamide [Example 237I]
CAM ELISA % Inhibition at 1 μM E-Selectin (E-Selectin): 71% | CAM ELISA % Inhibition at 1 μM VCAM-1 (VCAM-1): 54% | CAM ELISA % Inhibition at 1 μM ICAM-1 (ICAM-1): 77%

Compound: Cc1ccc(Sc2cncc3sc(C(N)=O)cc23)cc1 [Example 19, 4-[(4-methylphenyl)thio]thieno[2,3-c]pyridine-2-carboxamide]
inhibition at 1 µM (E-Selectin): 79% | inhibition at 1 µM (VCAM-1): 41% | inhibition at 1 µM (ICAM-1): 67%

Compound: Cc1ccc(Sc2c(/C=C/C(N)=O)sc3cnccc23)cc1 [Example 32]
CAM ELISA % Inhibition at 1 μM E-Selectin (E-Selectin): 75% | CAM ELISA % Inhibition at 1 μM VCAM-1 (VCAM-1): 41% | CAM ELISA % Inhibition at 1 μM ICAM-1 (ICAM-1): 63%

Compound: Cc1occc1Sc1cncc2sc(C(N)=O)cc12 [Example 53, 4-[(2-methyl-3-fiuranyl)thio]thieno[2,3-c]piridine-2-carboxamide]
CAM ELISA % Inhibition at 1 μM E-Selectin (E-Selectin): 70% | CAM ELISA % Inhibition at 1 μM VCAM-1 (VCAM-1): 48% | CAM ELISA % Inhibition at 1 μM ICAM-1 (ICAM-1): 67%

Compound: Cc1ccc(Oc2cncc3sc(C(N)=O)cc23)cc1 [Example 60, 4-(4-methylphenoxy)thieno[2,3-c]pyridine-2-carboxamide]
inhibition at 1 µM (E-Selectin): 74% | inhibition at 1 µM (VCAM-1): 42% | inhibition at 1 µM (ICAM-1): 71%

Compound: CCOC(=O)c1cccc(Oc2cncc3sc(C(N)=O)cc23)c1 [Example 79, ethyl 3-[[2-(aminocarbonyl)thieno[2,3-c]pyridin-4-yl]oxy]benzoate]
inhibition at 1 µM (E-Selectin): 66% | inhibition at 1 µM (VCAM-1): 38% | inhibition at 1 µM (ICAM-1): 63%

Compound: O=C(Nc1cc2c(Oc3ccc(Cl)cc3)cncc2s1)OC1CCOC1 (centres unmarked) [Example 89, N-(4-(4-chlorophenoxy)thieno[2,3-c]pyridin-2-yl)-O-(3-tetrahydrofuranyl)carbamate]
CAM ELISA % Inhibition at 1 μM E-Selectin (E-Selectin): 62% | CAM ELISA % Inhibition at 1 μM VCAM-1 (VCAM-1): 50% | CAM ELISA % Inhibition at 1 μM ICAM-1 (ICAM-1): 64%

Compound: NC(=O)c1cc2c(-c3ccc(C(F)(F)F)cc3)cncc2s1 [Example 95, 4-[4-(trifluoromethyl)phenyl]thieno[2,3-c]pyridine-2-carboxamide]
inhibition at 1 µM (E-Selectin): 85% | inhibition at 1 µM (VCAM-1): 61% | inhibition at 1 µM (ICAM-1): 71%

Compound: C=C(c1ccccc1)c1cncc2sc(C(N)=O)cc12 [Example 102, 4-(1-phenylethenpl)thieno[2,3-c]pyridine-2-carboxamide]
CAM ELISA % Inhibition at 1 μM E-Selectin (E-Selectin): 78% | CAM ELISA % Inhibition at 1 μM VCAM-1 (VCAM-1): 53% | CAM ELISA % Inhibition at 1 μM ICAM-1 (ICAM-1): 68%

Compound: CN(C)C(=O)c1cc2c(Oc3ccc(Cl)cc3)cncc2s1 [Example 104, 4-(4-chlorophenoxy)-N,N-dimethylthieno[2,3-c]pyridine-2-carboxamide]
inhibition at 1 µM (E-Selectin): 78% | inhibition at 1 µM (VCAM-1): 53% | inhibition at 1 µM (ICAM-1): 72%

Compound: CN1CCN(C(=O)c2cc3c(Oc4ccc(Cl)cc4)cncc3s2)CC1 [Example 110, 1-[[4-(4-chlorophenoxy)thieno[2,3-c]pyridin-2-yl]carbonyl]-4-methylpiperazine]
inhibition at 1 µM (E-Selectin): 44% | inhibition at 1 µM (VCAM-1): 39% | inhibition at 1 µM (ICAM-1): 48%

Compound: O=C(NCCN1CCOCC1)c1cc2c(Oc3ccc(Cl)cc3)cncc2s1 [Example 119, 4-(4-chlorophenoxy)-N-[2-(4-morpholinyl)ethyl]thieno[2,3-c]pyridine-2-carboxamide]
inhibition at 1 µM (E-Selectin): 59% | inhibition at 1 µM (VCAM-1): 36% | inhibition at 1 µM (ICAM-1): 61%

Compound: NS(=O)(=O)c1cc2c(Oc3ccc(Cl)cc3)cncc2s1 [Example 120, 4-(4-Chlorophenoxy)thieno[2,3-c]pyridine-2-sulfonamide]
inhibition at 1 µM (E-Selectin): 72% | inhibition at 1 µM (VCAM-1): 49% | inhibition at 1 µM (ICAM-1): 72%

Compound: COc1ccccc1-c1cc2c(Oc3ccc(Cl)cc3)cncc2s1 [Example 124, 4-(4-chlorophenoxy)-2-(2-methoxyphenyl)thieno[2,3-c]pyridine]
inhibition at 1 µM (E-Selectin): 18% | inhibition at 1 µM (VCAM-1): 26% | inhibition at 1 µM (ICAM-1): 29%

Compound: CNC(=O)c1cc2c(Oc3ccc(F)c(F)c3F)cncc2s1 [Example 181, N-Methyl-4-(2,3,4-trifluorophenoxy)thieno[2,3-c]pyridine-2-carboxamide]
melting point: 170 to 171 °C

Compound: C=Cc1ccc(Oc2cncc3sc(C(=O)N(C)C)cc23)cc1 [Example 185, N,N-Dimethyl-4-(4-vinylphenoxy)thieno[2,3-c]pyridine-2-carboxamide]
melting point: 80 to 81 °C

Compound: CCC(=NO)c1cc2c(Oc3ccc(Cl)cc3)cncc2s1 [Example 246, 1-[4-(4-Chlorophenoxy)thieno[2,3-c]pyridin-2-yl]-1-propanone oxime]
melting point: 195 to 198 °C (dec.)

Compound: N#Cc1cc2c(Oc3ccc(Cl)cc3)cncc2s1 [Example 248, 4-(4-Chlorophenoxy)thieno[2,3-c]pyridine-2-carbonitrile]
melting point: 140 to 142 °C

Compound: Nc1ccccc1C(=O)c1cc2c(Oc3ccc(Cl)cc3)cncc2s1 [Example 251, (2-Aminophenyl)[4-(4-chlorophenoxy)thieno[2,3-c]pyridin-2-yl]methanone]
melting point: 152 to 154 °C

Compound: NCc1cc2c(Oc3ccc(Cl)cc3)cncc2s1 [Example 256, [4-(4-Chlorophenoxy)thieno[2,3-c]pyridin-2-yl]methanamine]
melting point: 78.6 to 79.8 °C

Compound: NC(=O)NCc1cc2c(Oc3ccc(Cl)cc3)cncc2s1 [Example 258, N-1[4-(4-Chlorophenoxy)thieno[2,3-c]pyridin-2-yl]methyl urea]
melting point: 202 to 204 °C

Compound: NC(=O)c1csc(-c2cc3c(Oc4ccc(Cl)cc4)cncc3s2)n1 [Example 293, 2-[4-(4-Chlorophenoxy)thieno[2,3-c]pyridin-2-yl]-1,3-thiazole-4-carboxamide]
melting point: 215 to 218 °C

Other lines, results leading:

melting point: 218 to 219 °C
Compound: NC(=O)c1cc2c(Oc3ccc(F)c(F)c3F)cncc2s1 [Example 182, 4-(2,3,4-Trifluorophenoxy)thieno[2,3-c]pyridine-2-carboxamide]

melting point: 195 to 196 °C
Compound: CNC(=O)c1cc2c(Oc3ccc(COC4CCCCO4)cc3)cncc2s1 (centres unmarked) [Example 199, N-Methyl-4-{4-[(tetrahydro-2H-pyran-2-yloxy)methyl]phenoxy}thieno[2,3-c]pyridine-2-carboxamide]

melting point: 180 to 182 °C
Compound: NC(=O)c1cc2c(Oc3ccc(COC(=O)c4ccco4)cc3)cncc2s1 [Example 200, 4-[[2-(Aminocarbonyl)thieno[2,3-c]pyridin-4-yl]oxy}benzyl 2-furoate]

melting point: 126 to 128 °C
Compound: CON=C(C)c1cc2c(Oc3ccc(Cl)cc3)cncc2s1 [Example 243A, 1-[4-(4-Chlorophenoxy)thieno[2,3-c]pyridin-2-yl]-1-ethanone O-methyloxime]

melting point: 265 to 268 °C
Compound: N#CN=C(N)c1cc2c(Oc3ccc(Cl)cc3)cncc2s1 [Example 250, 4-(4-Chlorophenoxy)-N′-cyanothieno[2,3-c]pyridine-2-carboximidamide]

melting point: 213 to 215 °C
Compound: Oc1ccc(-c2cc3c(Oc4ccc(Cl)cc4)cncc3s2)cc1 [Example 270, 4-[4-(4-Chlorophenoxy)thieno[2,3-c]pyridin-2-yl]phenol]

melting point: 178 to 182 °C
Compound: Nc1ccc(-c2cc3c(Oc4ccc(Cl)cc4)cncc3s2)cc1 [Example 272, 4-[4-(4-Chlorophenoxy)thieno[2,3-c]pyridin-2-yl]aniline]

melting point: > 270 °C
Compound: Nc1nnc(-c2cc3c(Oc4ccc(Cl)cc4)cncc3s2)[nH]1 [Example 277, 5-[4-(4-Chlorophenoxy)thieno[2,3-c]pyridin-2-yl]-4H-1,2,4-triazol-3-amine]

melting point: 101 to 103 °C
Compound: Clc1ccc(Oc2cncc3sc(-c4cccs4)cc23)cc1 [Example 292, 4-(4-Chlorophenoxy)-2-(2-thienyl)thieno[2,3-c]pyridine]

melting point: 158 to 160 °C (dec.)
Compound: Clc1ccc(Oc2cncc3sc(C4=NCCO4)cc23)cc1 [Example 296, 4-(4-Chlorophenoxy)-2-(4,5-dihydro-1,3-oxazol-2-yl)thieno[2,3-c]pyridine]

melting point: 154 to 155 °C
Compound: Clc1ccc(Oc2cncc3sc(C4=NCCN4)cc23)cc1 [Example 298, 4-(4-Chlorophenoxy)-2-(4,5-dihydro-1H-imidazol-2-yl)thieno[2,3-c]pyridine]

melting point: 177 to 178 °C
Compound: Cc1c(C(N)=O)sc2cncc(Oc3ccc(Br)cc3)c12 [Example 304, 4-(4-Bromophenoxy)-3-methylthieno[2,3-c]pyridine-2-carboxamide]

melting point: 175 to 176 °C
Compound: NC(=O)c1cc2c(Oc3ccc(C(F)(F)F)cc3)cnc(Cl)c2s1 [Example 318, 7-Chloro-4-[4-(trifluoromethyl)phenoxy]thieno[2,3-c]pyridine-2-carboxamide]

melting point: 178 to 179 °C
Compound: CNC(=O)c1cc2c(Oc3ccc(C(F)(F)F)cc3)cnc(Cl)c2s1 [Example 319, 7-Chloro-N-methyl-4-[4-(trifluoromethyl)phenoxy]thieno[2,3-c]pyridine-2-carboxamide]

melting point: > 250 °C
Compound: NC(=O)c1cc2c(Oc3ccc(Cl)cc3)c[nH]c(=O)c2s1 [Example 323, 4-(4-Chlorophenoxy)-7-oxo-6,7-dihydrothieno[2,3-c]pyridine-2-carboxamide]
